Where a name gives a salt, the structure may show the parent alone.

Five compounds from patent US12403144B2, “HECT E3 ligase inhibitors and uses thereof” (IFOM FONDAZIONE ISTITUTO FIRC DI ONCOLOGIA MOLECOLARE, priority 2019, dated 2025) can be followed below.

One assay relates to LNCaP cells. Kind of assay: CellTiter-Glo Luminescent Cell Viability Assay, LNCaP. It counts as cell-based. The note with it: Homo sapiens, 48 hours incubation, mean of at least two determinations, read-out: LNCaP IC50 μM (antiproliferative activity). An excerpt:
CellTiter-Glo® Luminescent Cell Viability Assay (Promega, Catalog number: G7571) is a homogeneous method of determining the number of viable cells in culture based on quantitation of the present ATP, which indicates the presence of metabolically active cells. The homogeneous assay procedure involves addition of a single reagent (CellTiter-Glo® Reagent) directly to the cells, which leads to cell lysis and generation of a luminescent signal proportional to the amount of the ATP and the number of cells present in culture. The assay relies on the properties of a proprietary thermostable luciferase (Ultra-Glo® recombinant luciferase), which generates a luminescent signal.
DU145 cells (obtained from CLS Cell Lines Service GmbH item 300168) were grown in DMEM (Sigma Aldrich catalog number D6171-500 ml) supplemented with 10% Fetal Bovine Serum (Euroclone, catalog number. ECS0180L), 2 mM L-Glutamine (Euroclone catalog number LOBE17605F) and 100 U/ml penicillin-[…] streptomycin (EuroClone, ECB3001L). LNCaP cells (obtained from CLS Cell Lines Service GmbH item 300265) were grown in RPMI1640 (Lonza catalog number BE12-167F) supplemented with 10% Fetal Bovine Serum (Euroclone, catalog number. ECS0180L), 2 mM L-Glutamine (Euroclone catalog number LOBE17605F) and 100 U/ml penicillin-[…] streptomycin (EuroClone, ECB3001 L).
To determine the antiproliferative activity of the compounds, 3000 DU145 cells and 5000 LNCap cells were seeded in 96 multiwell plate (Sigma catalog number CLS9102) per well. 24 hours after seeding, the cells were incubated for 48 hours with different concentrations of the inhibitors (from 50 to 0 μM with a 3-fold dilution) dissolved in DMSO. After 48 hours, a volume of CellTiter-Glo® Reagent equal to the volume of cell culture medium was added. The content was mixed for 2 min to induce cell lysis. The luminescence was measured and recorded with Tecan Infinite 200 multimode plate reader after further 10 min at room temperature in order to obtain a stable luminescent signal.
The IC50 was calculated using GraphPad Software from the recorded luminescent signal.
In general terms: Cellular ATP, detected with luciferase, serves as a proxy for viable cell number.
Usually IC50 stands for the point on the concentration scale where inhibition reaches its midpoint. On to `CCOC(=O)/C=C/CCNCCCN1c2ccccc2CCc2ccc(Cl)cc21` [Compound 5, Ethyl (E)-5-[3-(3-chloro-10,11-dihydro-5H-dibenzo[b,f]azepin-5-yl)propylamino]pent-2-enoate maleate], for which the IC50 was found to be 10.9 µM.

Take `CCOC(=O)/C=C/CNCCCCN1c2ccccc2CCc2ccc(Cl)cc21.O=C(O)/C=C\C(=O)O` [Compound 12, Ethyl (E)-4-[4-(3-chloro-10,11-dihydro-5H-dibenzo[b,f]azepin-5-yl)butylamino]but-2-enoate maleate]: the half-inhibitory concentration (IC50) is 6.67 µM.

In the case of `CONC(=O)/C=C/CN(C)CCCCN1c2ccccc2CCc2ccc(Cl)cc21` [Compound 85, (E)-4-[4-(3-Chloro-10,11-dihydro-5H-dibenzo[b,f]azepin-5-yl)butyl-methyl-amino]-N-methoxy-but-2-enamide maleate], the IC50 is 16.3 µM.

Regarding `CCOC(=O)/C=C/CNCCCCN1c2ccccc2C(=O)N(Cc2ccccc2)c2ccc(Cl)cc21` [Compound 45, Ethyl (E)-4-{[4-(10-benzyl-7-chloro-11-oxo-10,11-dihydro-5H-dibenzo[b,e][1,4]diazepin-5-yl)butyl]amino}but-2-enoate maleate], the IC50 was determined as 5.69 µM.

On to `CCOC(=O)/C=C/CNCCCCN1c2cc(Cl)ccc2C(=O)N(C)c2ccccc21` [Compound 42, Ethyl (E)-4-{[4-(3-chloro-10-methyl-11-oxo-10,11-dihydro-5H-dibenzo[b,e][1,4]diazepin-5-yl)butyl]amino}but-2-enoate maleate], for which the IC50 was found to be 6.49 µM.

Another assay deals with T1, HECT of NEDD4 L553F (Homo sapiens, UniProt P46934, L972F).
T1 construct: 250 nM untagged HECT of NEDD4 WT or NEDD4 L553F or NEDD4L WT; made in house
T1 sequence (P46934 519-900 isoform P46934-4 L553F limits assumed): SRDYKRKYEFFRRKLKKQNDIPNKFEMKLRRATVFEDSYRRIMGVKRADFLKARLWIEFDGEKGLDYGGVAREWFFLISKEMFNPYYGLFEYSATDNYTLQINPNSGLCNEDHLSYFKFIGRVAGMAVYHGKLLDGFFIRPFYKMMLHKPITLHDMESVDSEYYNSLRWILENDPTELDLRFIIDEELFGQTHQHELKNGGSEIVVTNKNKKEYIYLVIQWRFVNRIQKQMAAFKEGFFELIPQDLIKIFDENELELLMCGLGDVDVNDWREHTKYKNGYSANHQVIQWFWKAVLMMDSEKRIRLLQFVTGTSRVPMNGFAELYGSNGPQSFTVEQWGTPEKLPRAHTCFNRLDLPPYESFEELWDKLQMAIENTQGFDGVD
Kind of assay: In vitro ubiquitination assay detected by western blot, HECT NEDD4 L553F mutant. The settings on record: 10 μM; FIG. 4c. It counts as biochemical. As to the method: In vitro ubiquitination assay performed with HECT NEDD4 WT and HECT NEDD4L WT in presence of the indicated compounds at 10 μM concentration. The symbol “−” indicates the DMSO-treated sample. Reactions were stopped after 1 hour with Laemmli buffer. […] HECT of NEDD4 bound to compound 12 is shown in light grey, superposed with the structure of HECT of NEDD4L (pdb entry 2oni, version 1.2, 13 Jul. 2011, shown in dark grey). c. In vitro ubiquitination assay using the HECT of NEDD4 WT (HECT WT) and L553F (HECT L553F) was performed in presence of compound 12 at 10 μM concentration. The symbol “-” indicates the DMSO-treated sample. Immunoblot was performed with the anti-ubiquitin antibody (upper panel).
An in vitro ubiquitination assay followed by western blot detection was used to determine the selectivity of the different compounds. The full protocol is described in (E. Maspero et al. Methods Mol Biol. 1449:153-60 (2016)). Briefly, the assay was performed with bacterially purified enzymes (20 nM E1, 250 nM of purified His6-tagged UBE2D3 and 250 nM untagged HECT of NEDD4 WT or NEDD4 L553F or NEDD4L WT) and 1 μM of untagged ubiquitin in ubiquitination buffer (25 mM Tris-HCl, pH 7.6, 5 mM MgCl2, 100 mM NaCl, 0.2 μM DTT). […] The binding pocket determined by X-ray is highly conserved among the various members of the NEDD4 family with few important exceptions. […]
(A western blot detects proteins with antibodies after separation by electrophoresis.)
With `CCOC(=O)/C=C/CNCCCCN1c2ccccc2CCc2ccc(Cl)cc21.O=C(O)/C=C\C(=O)O` [Compound 12, Ethyl (E)-4-[4-(3-chloro-10,11-dihydro-5H-dibenzo[b,f]azepin-5-yl)butylamino]but-2-enoate maleate], the “activity of compound on HECT NEDD4 L553F mutant (anti-ubiquitin immunoblot)” value was “fully abrogate the activity”.
